Measurements: ChEMBL document CHEMBL1201862, “PubChem BioAssay data set” (2004)
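Method: 48-hour compound exposure of cells in 96-well plates, five concentrations, linear interpolation of endpoints. GI50 = concentration required for 50% inhibition of growth.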 Calls of active or inactive are those of the source. Cut-off read from the data, not from the text of the source: active = GI50 up to about 1.1 µM and inactive = higher.

What was measured:
Assay in all cases: NCI-60 cell line screen, 48 h
A498 = system: A498
786-0 = system: 786-0
HCC 2998 = system: HCC 2998
OVCAR-8 = system: OVCAR-8
ACHN = system: ACHN
SR = system: SR
MCF7 = system: MCF7
UO-31 = system: UO-31
SN12C = system: SN12C
HCT-15 = system: HCT-15
NCI-H226 = system: NCI-H226
UACC-62 = system: UACC-62
NCI-H460 = system: NCI-H460
U-251 = system: U-251
SK-MEL-5 = system: SK-MEL-5
RPMI-8226 = system: RPMI-8226
NCI-H23 = system: NCI-H23
TK-10 = system: TK-10
MDA-MB-435 = system: MDA-MB-435
MOLT-4 = system: MOLT-4

SMILES | GI50 (A498) | GI50 (786-0) | GI50 (HCC 2998) | GI50 (OVCAR-8) | GI50 (ACHN) | GI50 (SR) | GI50 (MCF7) | GI50 (UO-31) | GI50 (SN12C) | GI50 (HCT-15) [µM] | GI50 (NCI-H226) | GI50 (UACC-62) | GI50 (NCI-H460) | GI50 (U-251) | GI50 (SK-MEL-5) | GI50 (RPMI-8226) | GI50 (NCI-H23) | GI50 (TK-10) | GI50 (MDA-MB-435) | GI50 (MOLT-4)
CSc1ccc2c(c1)c(CCN)c(C)n2Cc1ccccc1Cl | 1.71 µM (inactive) | 1.72 µM (inactive) | 0.74 µM (active) | 1.79 µM (inactive) | 1.69 µM (inactive) | 2.42 µM (inactive) | 1.85 µM (inactive) | 1.52 µM (inactive) | 1.58 µM (inactive) | 2.02 | 1.66 µM (inactive) | 1.65 µM (inactive) | 1.55 µM (inactive) | 1.66 µM (inactive) | 1.72 µM (inactive) | 1.42 µM (inactive) | 1.93 µM (inactive) | 1.73 µM (inactive) | 1.67 µM (inactive) | 
COc1cc(C2C3=C(COC3=O)OC(C)(C)Oc3cc4c(cc32)OCO4)cc(OC)c1OC (configuration not stated) | 0.281 µM (active) | 0.293 µM (active) | 0.535 µM (active) | 0.342 µM (active) | 0.682 µM (active) | 0.195 µM (active) | 0.415 µM (active) | 0.426 µM (active) | 0.466 µM (active) | 0.372 | 0.885 µM (active) | 0.35 µM (active) | 0.365 µM (active) | 0.447 µM (active) | 0.348 µM (active) | 0.444 µM (active) | 0.384 µM (active) |  | 0.167 µM (active) | 0.453 µM (active)
COc1ccc(/C=C2\C[C@H]3[C@@H]4CC=C5C[C@@H](OC(C)=O)CC[C@]5(C)[C@H]4CC[C@]3(C)C2=O)cc1OC | 33 µM (inactive) | 38.7 µM (inactive) | 58.3 µM (inactive) | 40.6 µM (inactive) | 49.5 µM (inactive) | 24.7 µM (inactive) | 38.4 µM (inactive) | 12.2 µM (inactive) | 42.3 µM (inactive) | 68.9 | 48.2 µM (inactive) | > 100 µM (inactive) | 33.9 µM (inactive) |  | 10.6 µM (inactive) | 11.3 µM (inactive) | 70 µM (inactive) |  | 48.4 µM (inactive) | 5.9 µM (inactive)
CCN1C/C(=C\c2ccc(Cl)cc2)c2[nH]c(=O)c(C#N)c(-c3ccc(Cl)cc3)c2C1 | > 100 µM (inactive) | > 100 µM (inactive) | > 100 µM (inactive) |  | > 100 µM (inactive) | 18.4 µM (inactive) | > 100 µM (inactive) |  | > 100 µM (inactive) | > 100 | > 100 µM (inactive) | > 100 µM (inactive) | > 100 µM (inactive) | > 100 µM (inactive) | > 100 µM (inactive) | > 100 µM (inactive) | > 100 µM (inactive) | > 100 µM (inactive) | > 100 µM (inactive) | 21.2 µM (inactive)
Cc1cc2c(c(S(=O)(=O)c3ccccc3[N+](=O)[O-])c1)NCCC2 | > 100 µM (inactive) | > 100 µM (inactive) | 91.2 µM (inactive) | > 100 µM (inactive) | 28.9 µM (inactive) | > 100 µM (inactive) | 58.6 µM (inactive) | 37.4 µM (inactive) | 76.4 µM (inactive) | 33.7 | > 100 µM (inactive) | 17.8 µM (inactive) | 66.7 µM (inactive) | 83.9 µM (inactive) | 18.7 µM (inactive) | 85.3 µM (inactive) | 59.7 µM (inactive) | > 100 µM (inactive) | 25.6 µM (inactive) | 
COc1c(O)cc2ccnc3c2c1N(C)C=C3 | > 100 µM (inactive) | 83.8 µM (inactive) | > 100 µM (inactive) | 95.1 µM (inactive) | 56.1 µM (inactive) | 10.1 µM (inactive) | > 100 µM (inactive) | 39.4 µM (inactive) | 67.6 µM (inactive) | > 100 | > 100 µM (inactive) | > 100 µM (inactive) | 64.6 µM (inactive) | > 100 µM (inactive) |  | > 100 µM (inactive) | > 100 µM (inactive) | > 100 µM (inactive) | > 100 µM (inactive) | 91.6 µM (inactive)
